Assay results reported in the NIST ThermoML archive (doi:10.1021/je700042z).
Values joined by “and” are separate entries in the source; they are usually repeats but may differ in a detail not shown here. Identical values can stand only once.

Experiment: cn = amount concentration of the nth substance listed, in mol/dm3
Settings: 298.15 K, 101 kPa, Liquid

In the case of `O=C(O)CC(=O)O` [propanedioic acid] + O, the binary diffusion coefficient (c1 = 0.000124) was 1.67e-09 m2/s and 1.68e-09 m2/s, the binary diffusion coefficient (c1 = 0.000252) was 1.59e-09 m2/s and 1.61e-09 m2/s and 1.6e-09 m2/s and the binary diffusion coefficient (c1 = 0.000253) was 1.61e-09 m2/s and 1.6e-09 m2/s and 1.59e-09 m2/s. For the same compound, the binary diffusion coefficient (c1 = 0.000378) was 1.53e-09 m2/s and 1.52e-09 m2/s, the binary diffusion coefficient (c1 = 0.000379) was 1.52e-09 m2/s and the binary diffusion coefficient (c1 = 0.000502) was 1.49e-09 m2/s. The binary diffusion coefficient (c1 = 0.000627) was 1.46e-09 m2/s and 1.45e-09 m2/s, the binary diffusion coefficient (c1 = 0.000751) was 1.42e-09 m2/s and the binary diffusion coefficient (c1 = 0.000803) was 1.4e-09 m2/s. For the same compound, the binary diffusion coefficient (c1 = 0.00138) was 1.32e-09 m2/s and 1.33e-09 m2/s, the binary diffusion coefficient (c1 = 0.0019) was 1.27e-09 m2/s and the binary diffusion coefficient (c1 = 0.0025) was 1.23e-09 m2/s and 1.22e-09 m2/s. For the same compound, the binary diffusion coefficient (c1 = 0.0035) was 1.19e-09 m2/s and 1.18e-09 m2/s, the binary diffusion coefficient (c1 = 0.00454) was 1.16e-09 m2/s and the binary diffusion coefficient (c1 = 0.0046) was 1.14e-09 m2/s and 1.15e-09 m2/s and 1.16e-09 m2/s. The binary diffusion coefficient (c1 = 0.00701) was 1.11e-09 m2/s, the binary diffusion coefficient (c1 = 0.0101) was 1.08e-09 m2/s and the binary diffusion coefficient (c1 = 0.0118) was 1.07e-09 m2/s and 1.08e-09 m2/s. The binary diffusion coefficient (c1 = 0.015) was 1.06e-09 m2/s and 1.07e-09 m2/s and 1.05e-09 m2/s and the binary diffusion coefficient (c1 = 0.0201) was 1.03e-09 m2/s.
In the case of `O=[As](O)(O)O` [arsenic acid] + O, the binary diffusion coefficient (c1 = 0.000125) was 1.5e-09 m2/s and 1.49e-09 m2/s, the binary diffusion coefficient (c1 = 0.000407) was 1.41e-09 m2/s and the binary diffusion coefficient (c1 = 0.000837) was 1.35e-09 m2/s. For the same compound, the binary diffusion coefficient (c1 = 0.00101) was 1.33e-09 m2/s and 1.32e-09 m2/s, the binary diffusion coefficient (c1 = 0.00206) was 1.24e-09 m2/s and the binary diffusion coefficient (c1 = 0.00251) was 1.21e-09 m2/s. For the same compound, the binary diffusion coefficient (c1 = 0.00351) was 1.17e-09 m2/s, the binary diffusion coefficient (c1 = 0.00471) was 1.13e-09 m2/s and 1.14e-09 m2/s and the binary diffusion coefficient (c1 = 0.00506) was 1.12e-09 m2/s. The binary diffusion coefficient (c1 = 0.00701) was 1.08e-09 m2/s and 1.09e-09 m2/s, the binary diffusion coefficient (c1 = 0.00825) was 1.08e-09 m2/s and 1.07e-09 m2/s and the binary diffusion coefficient (c1 = 0.0119) was 1.03e-09 m2/s and 1.04e-09 m2/s. For the same compound, the binary diffusion coefficient (c1 = 0.014) was 1.02e-09 m2/s.
